Laboratory results published in patent US7892350B2, “Sacrificial agents for fly ash concrete” (Boral Material Technologies Inc., priority 2003, dated 2011).
Where two headings read alike, the source gives them in different places.

Experiment: Second sacrificial agent testing protocol: paste air measurements with DDBS (0.0125 wt %) and rating; on Overall performance rating (second protocol rating): key: 0: Fail; 1: Poor; 2: Good; 3: Preferred; 4: Most preferred; on SA Rating (0-4): key: 0: Fail; 1: Poor; 2: Good; 3: Preferred; 4: Most preferred
Procedure: The second sacrificial agents evaluation protocol has been designed to assess the relative potential value of candidate sacrificial agents with a maximum of five paste air measurements.
The first two measurements (of entrained air) are carried out with a standard AEA in a portland cement paste and in a FA:cement paste; these two tests provide reference values which can be used for the relative assessment of a series of sacrificial agents. The other three paste air measurements pertain to the properties and effectiveness of the sacrificial agents.
1. Measurement of the air entrained by a standard air-entraining admixture in a cement paste of fixed composition and fluidity; the latter is a reference system which provides ‘reference’ air entrainment values (‘A’ in FIG. 8).
2. […] The difference between ‘B’ and ‘A’ in FIG. 8 is the reduction in air entrainment due to the presence of the fly ash; this is illustrated as ‘C’ in FIG. 8.
In the present SA testing and evaluation protocol, the fly ash selected should remain the same for the entire set of additives tested, in order to provide reliable relative performance ranking. For the present series of test, the Fly Ash selected was the one identified as B1 in Table 1 below; the physico-chemical properties of this fly ash are reported in Table 1.
In testing for the relative performance of the sacrificial agent, the sacrificial agent dosage was chosen in the range 0-0.1 wt %, which corresponds to typical dosage values observed in paste, mortar and concrete tests reported in Tables 2, 3 and 4 and Tables 7 to 34.
3. Measurement of the air entrainment of the SA, by itself, in a cement-only paste at a dosage of 0.1 wt %; this is illustrated as ‘D’ in FIG. 8.
4. Measurement of the air entrained by DDBS in the FA-cement paste comprising 0.05% wt SA, under the same conditions as described in 2 above. The air entrainment value observed in this system, compared to that observed in the absence of the SA, yields the air recovery due to the SA, and is illustrated schematically as ‘E’ in FIG. 8.
5. Same as in 4 above, but with a higher SA concentration at 0.1 wt %; the air entrainment observed, again compared to the value observed in the absence of the SA, yields a second value of air recovery by the SA and is illustrated as ‘F’ in FIG. 8.
For the relative performance rating of the group of products chosen as potential SA and listed in Table 36, the following rating scheme (Tables A and B) was adopted (referring to FIG. 8 and quantities defined therein):
1: Chemical name of compound tested as potential sacrificial agent • Col. 2: Level of air entrainment by the candidate sacrificial agent, at a concentration of 0.1 wt %, in a Portland cement paste ([…]) • Col. […] 5: Sacrificial agent overall rating index (described below) • Col. 6: Hydrophilic-Lipophilic Balance (HLB) values of candidate sacrificial agent (source and significance of HLB data given below) • Col. 7: Logarithm of the Oil(octanol)/water partition coefficient (Kow) of the candidate sacrificial agents (source and significance of data given below).

[1] = sum of ratings of air entrainment recovery by 0.05% and 0.1% SA, DDBS 0.0125 wt %, 50:50 B1 fly ash:cement paste
[2] = Portland cement paste (PCA), […]
[3] = sacrificial agent overall rating index
[4] = B1 FA/cement paste, 0.0125 wt % DDBS, 0.05 wt % SA
[5] = B1 FA/cement paste, 0.0125 wt % DDBS, 0.10 wt % SA

Compound	Overall performance rating (second protocol rating)	B1 + 0.0125% DDBS + 0.05% SA (air entrainment) (B1 FA/cement paste, […])	B1 + 0.0125% DDBS + 0.1% SA (air entrainment) (B1 FA/cement paste, […])	PCA + 0.1% SA (level of air entrainment by the candidate sacrificial agent) [2]	SA Rating (0-4) [3]	also measured
Polyethylene glycol 2000						Overall performance rating (second protocol rating) [1]: 4
CCO [Ethanol]						B1 + 0.0125% DDBS + 0.05% SA (air entrainment): 3.1; B1 + 0.0125% DDBS + 0.1% SA (air entrainment): 3.3; PCA + 0.1% SA (level of air entrainment by the candidate sacrificial agent): 1.5; SA Rating (0-4): 0
Polypropylene glycol 425						Overall performance rating (second protocol rating) [1]: 4
OCCOCCOCCO [tri-Ethylene Glycol]	1	3.1	4.1	0.9	1	
CCC(O)CC [3-Pentanol]				0.5	4	B1 + 0.0125% DDBS + 0.05% SA (air entrainment) [4]: 6.1; B1 + 0.0125% DDBS + 0.1% SA (air entrainment) [5]: 6.3; Overall performance rating (second protocol rating) [1]: 4
CC(O)CO (stereo not drawn) [Propylene Glycol]		3.0	3.6	0.5	0	
CCCCCCO [Hexanol]	1	4.2	2.7	0.0	1	
CCOCCOC(C)=O [E.G. mono-ethyl ether acetate]						B1 + 0.0125% DDBS + 0.05% SA (air entrainment): 4.7; B1 + 0.0125% DDBS + 0.1% SA (air entrainment): 4.7; PCA + 0.1% SA (level of air entrainment by the candidate sacrificial agent): 0.0; SA Rating (0-4): 2
Cc1ccc(S(=O)(=O)O)cc1 [p-Toluene Sulfonic acid]	3	3.9	5.1	0.7	3	
CC1=CCC2CC1C2(C)C (stereo not drawn) [Alpha-Pinene]		2.4	2.9	0.4	0	
O=C([O-])c1ccccc1O.[Na+] [Sodium Salicylate]						B1 + 0.0125% DDBS + 0.05% SA (air entrainment): 2.9; B1 + 0.0125% DDBS + 0.1% SA (air entrainment): 3.0; PCA + 0.1% SA (level of air entrainment by the candidate sacrificial agent): 0.4; SA Rating (0-4): 0
CCCCCCCC/C=C\CCCCCCCC(=O)OC [Methyloleate]				0.5	2	B1 + 0.0125% DDBS + 0.05% SA (air entrainment) [4]: 5.1; B1 + 0.0125% DDBS + 0.1% SA (air entrainment) [5]: 2.7; Overall performance rating (second protocol rating) [1]: 2
CCCCO [1-Butanol]	4					B1 + 0.0125% DDBS + 0.05% SA (air entrainment): 5.9; B1 + 0.0125% DDBS + 0.1% SA (air entrainment): 6.5; PCA + 0.1% SA (level of air entrainment by the candidate sacrificial agent): 1.2; SA Rating (0-4): 4
OC[C@@H](O)[C@@H](O)[C@H](O)[C@@H](O)CO [Sorbitol]	1	2.2	4.2	0.5	1	
Cl.NCC(N)C(=O)O (stereo not drawn)		1.7	1.9	0.3	0	
CCN(CC)CC [Triethylamine]	4					B1 + 0.0125% DDBS + 0.05% SA (air entrainment): 5.2; B1 + 0.0125% DDBS + 0.1% SA (air entrainment): 5.1; PCA + 0.1% SA (level of air entrainment by the candidate sacrificial agent): 0.5; SA Rating (0-4): 4
CCCN(CCC)CCC [Tripropylamine]		2.6	2.4	0.3	0	
O=C(O)c1ccc2ccccc2c1 [2-Naphthoic acid]				1.3	1	B1 + 0.0125% DDBS + 0.05% SA (air entrainment) [4]: 3.2; B1 + 0.0125% DDBS + 0.1% SA (air entrainment) [5]: 4.2; Overall performance rating (second protocol rating) [1]: 1
